Data published in patent US20260042731A1, “(2,4-DICHLOROPHENOXY)ACETIC ACID ANALOGS” (CORTEVA AGRISCIENCE LLC, priority 2022, published 2026).
Read-outs that look alike come from different tables or passages of the source.

How the values were obtained:
[1] = system: Amaranthus rudis (AMATA), tall water hemp; assay: Postemergence herbicide evaluation, growth of Amaranthus rudis (AMATA); assay type: in vivo; details: Amaranthus tuberculatus, post-emergence, percent reduction in plant size relative to untreated control, read-out: Ave. AMATA; for pest or weed control at 280 g/ha: 280 g ae/ha; for pest or weed control at 560 g/ha: 560 g ae/ha
[2] = system: Ambrosia artemisiifolia (AMBEL), common ragweed; assay: Postemergence herbicide evaluation, growth of Ambrosia artemisiifolia (AMBEL); assay type: in vivo; details: Ambrosia artemisiifolia, post-emergence, percent reduction in plant size relative to untreated control, read-out: AVE. AMBEL; for pest or weed control at 280 g/ha: 280 g ae/ha; for pest or weed control at 560 g/ha: 560 g ae/ha
[3] = system: Abutilon theophrasti (ABUTH), velvetleaf; assay: Postemergence herbicide evaluation, growth of Abutilon theophrasti (ABUTH); assay type: in vivo; details: Abutilon theophrasti, post-emergence, percent reduction in plant size relative to untreated control, read-out: AVE. ABUTH; for pest or weed control at 280 g/ha: 280 g ae/ha; for pest or weed control at 560 g/ha: 560 g ae/ha
[4] = system: Chenopodium album (CHEAL), common lambsquarters; assay: Postemergence herbicide evaluation, growth of Chenopodium album (CHEAL); assay type: in vivo; details: Chenopodium album, post-emergence, percent reduction in plant size relative to untreated control, read-out: Ave. CHEAL; for pest or weed control at 280 g/ha: 280 g ae/ha; for pest or weed control at 560 g/ha: 560 g ae/ha
[5] = system: glyphosate resistant Conyza canadensis (L.) (ERICA), horseweed; assay: Postemergence herbicide evaluation, growth of Conyza canadensis (ERICA); assay type: in vivo; details: Erigeron canadensis, post-emergence, percent reduction in plant size relative to untreated control, read-out: Ave. ERICA; for pest or weed control at 280 g/ha: 280 g ae/ha; for pest or weed control at 560 g/ha: 560 g ae/ha
[6] = Volatility of compounds measured by thermogravimetric analysis (TGA); assay type: physicochemical
Corn (ZEAMX) = assay: Greenhouse post-emergence mixture trials, percent visual control; assay type: in vivo; details: ZEAMX, 21 DAA
[7] = system: Common Lambsquarters (CHEAL); assay: as above; assay type: in vivo; details: CHEAL, 21 DAA; for pest or weed control at 560 g/ha / pest or weed control at 1120 g/ha: Chenopodium album, post-emergence, 504 h, no mixing partner; for pest or weed control at 1120 g/ha: read-out: % Control
Velvetleaf (ABUTH) = assay: as above; assay type: in vivo; details: ABUTH, 21 DAA; for pest or weed control at 560 g/ha / pest or weed control at 1120 g/ha: Abutilon theophrasti, post-emergence, 504 h, no mixing partner; for pest or weed control at 1120 g/ha: read-out: % Control
[8] = system: weeds (ABUTH, AMATA, AMBEL, CHEAL, ERICA); assay: Postemergence herbicide evaluation, overall average % weed control across ABUTH, AMATA, AMBEL, CHEAL, ERICA; assay type: in vivo; details: post-emergence, average over the five weeds, read-out: Overall Ave % Weed Control; for pest or weed control at 280 g/ha: 280 g ae/ha; for pest or weed control at 560 g/ha: 560 g ae/ha
[9] = Trial Bridge 2, compound 560 g ae/ha + Saflufenacil 25 g ai or ae/ha
[10] = Trial Bridge 2, compound 560 g ae/ha + Saflufenacil 75 g ai or ae/ha
[11] = Trial Bridge 2, compound 560 g ae/ha + Trifludimoxazin 12.5 g ai or ae/ha
[12] = Trial Bridge 2, compound 560 g ae/ha + Trifludimoxazin 50 g ai or ae/ha
[13] = Trial Bridge 2, compound 1120 g ae/ha + Saflufenacil 25 g ai or ae/ha
[14] = Trial Bridge 2, compound 1120 g ae/ha + Saflufenacil 75 g ai or ae/ha
[15] = Trial Bridge 2, compound 1120 g ae/ha + Trifludimoxazin 50 g ai or ae/ha
[16] = Trial Bridge 2, compound 560 g ae/ha
[17] = Trial Bridge 2, compound 1120 g ae/ha
[18] = Trial Bridge 1, compound 560 g ae/ha + Glufosinate 600 g ai or ae/ha

## O=C(COc1ccc(Cl)cc1Cl)NNC(=O)c1ccccc1 [Compound D10]
[1]; 168 h, 7 DAA
  pest or weed control at 280 g/ha: 68%
  pest or weed control at 560 g/ha: 80%
[1]; 336 h, 14 DAA
  pest or weed control at 280 g/ha: 94%
  pest or weed control at 560 g/ha: 96%
[1]; 504 h, 21 DAA
  pest or weed control at 280 g/ha: 85%
  pest or weed control at 560 g/ha: 85%
[2]; 168 h, 7 DAA
  pest or weed control at 280 g/ha: 73%
  pest or weed control at 560 g/ha: 83%
[2]; 336 h, 14 DAA
  pest or weed control at 280 g/ha: 91%
  pest or weed control at 560 g/ha: 97%
[2]; 504 h, 21 DAA
  pest or weed control at 280 g/ha: 93%
  pest or weed control at 560 g/ha: 100%
[3]; 168 h, 7 DAA
  pest or weed control at 280 g/ha: 88%
  pest or weed control at 560 g/ha: 83%
[3]; 336 h, 14 DAA
  pest or weed control at 280 g/ha: 85%
  pest or weed control at 560 g/ha: 96%
[3]; 504 h, 21 DAA
  pest or weed control at 280 g/ha: 91%
  pest or weed control at 560 g/ha: 100%
[4]; 168 h, 7 DAA
  pest or weed control at 280 g/ha: 63%
  pest or weed control at 560 g/ha: 65%
[4]; 336 h, 14 DAA
  pest or weed control at 280 g/ha: 68%
  pest or weed control at 560 g/ha: 83%
[4]; 504 h, 21 DAA
  pest or weed control at 280 g/ha: 73%
  pest or weed control at 560 g/ha: 85%
[5]; 168 h, 7 DAA
  pest or weed control at 280 g/ha: 63%
  pest or weed control at 560 g/ha: 65%
[5]; 336 h, 14 DAA
  pest or weed control at 280 g/ha: 83%
  pest or weed control at 560 g/ha: 88%
[5]; 504 h, 21 DAA
  pest or weed control at 280 g/ha: 93%
  pest or weed control at 560 g/ha: 99%
[6]
  TGA Data (rate of weight loss, volatility): 0.3 µg/min
Corn (ZEAMX); Trial Bridge 1, compound 560 g ae/ha + Glyphosate 1120 g ai or ae/ha
  % Control: 75%
Corn (ZEAMX); Trial Bridge 1, compound 560 g ae/ha + Glyphosate 1120 g ai or ae/ha, single replicate
  % Control: 70%
Corn (ZEAMX); Trial Bridge 1, compound 1120 g ae/ha, no mixing partner, single replicate
  % Control: 10%
Corn (ZEAMX); Zea mays, post-emergence, 504 h, Trial Bridge 1, compound 1120 g ae/ha, no mixing partner, single replicate
  plant injury at 1120 g/ha: 10%
Corn (ZEAMX); Zea mays, post-emergence, 504 h, compound 560 g ae/ha, no mixing partner, Trial Bridge 3
  plant injury at 560 g/ha: 5%
[7]; [9]
  % Control: 100%
[7]; [10]
  % Control: 100%
[7]; [11]
  % Control: 100%
[7]; [12]
  % Control: 100%
[7]; [13]
  % Control: 100%
[7]; [14]
  % Control: 100%
[7]; Trial Bridge 2, compound 1120 g ae/ha + Trifludimoxazin 12.5 g ai or ae/ha
  % Control: 100%
[7]; [15]
  % Control: 100%
[7]; Trial Bridge 3, compound 560 g ae/ha + Sulfentrazone 130 g ai/ha
  % Control: 100%
[7]; Trial Bridge 3, compound 560 g ae/ha + Sulfentrazone 347 g ai/ha
  % Control: 100%
[7]; Trial Bridge 3, compound 1120 g ae/ha + Sulfentrazone 130 g ai/ha
  % Control: 100%
[7]; Trial Bridge 3, compound 1120 g ae/ha + Sulfentrazone 347 g ai/ha
  % Control: 100%
[7]; [16]
  pest or weed control at 560 g/ha: 95%
[7]; [17]
  pest or weed control at 1120 g/ha: 95%
[7]; Trial Bridge 3, compound 560 g ae/ha
  pest or weed control at 560 g/ha: 95%
[7]; Trial Bridge 3, compound 1120 g ae/ha
  pest or weed control at 1120 g/ha: 100%
[7]; Trial Bridge 1, compound 560 g ae/ha
  pest or weed control at 560 g/ha: 95%
[7]; Trial Bridge 1, compound 1120 g ae/ha
  pest or weed control at 1120 g/ha: 95%
[7]; [18]
  % Control: 100%
[7]; Trial Bridge 1, compound 560 g ae/ha + Mesotrione 150 g ai or ae/ha
  % Control: 100%
[7]; Trial Bridge 1, compound 1120 g ae/ha + Arylex 5 g ai or ae/ha
  % Control: 95%
[7]; Trial Bridge 1, compound 1120 g ae/ha + Mesotrione 150 g ai or ae/ha
  % Control: 100%
Velvetleaf (ABUTH); compound 1120 g ae/ha + Sulfentrazone 130 g ai/ha, Trial Bridge 3
  % Control: 100%
Velvetleaf (ABUTH); compound 1120 g ae/ha + Sulfentrazone 347 g ai/ha, Trial Bridge 3
  % Control: 100%
Velvetleaf (ABUTH); compound 560 g ae/ha, Trial Bridge 3
  pest or weed control at 560 g/ha: 85%
Velvetleaf (ABUTH); compound 1120 g ae/ha, Trial Bridge 3
  pest or weed control at 1120 g/ha: 95%
Velvetleaf (ABUTH); Trial Bridge 1 Trt 2, D10 560 g ae/ha
  pest or weed control at 560 g/ha: 99%
Velvetleaf (ABUTH); Trial Bridge 1 Trt 3, D10 1120 g ae/ha
  pest or weed control at 1120 g/ha: 100%
Velvetleaf (ABUTH); [16]
  pest or weed control at 560 g/ha: 100%
Velvetleaf (ABUTH); [17]
  pest or weed control at 1120 g/ha: 100%
Velvetleaf (ABUTH); [18]
  % Control: 100%
Velvetleaf (ABUTH); Trial Bridge 1 Trt 5, D10 560 g ae/ha + diclosulam 35 g ai or ae/ha
  % Control: 100%
Velvetleaf (ABUTH); Trial Bridge 1 Trt 6, D10 1120 g ae/ha + diclosulam 35 g ai or ae/ha
  % Control: 100%
Velvetleaf (ABUTH); Trial Bridge 1 Trt 8, D10 560 g ae/ha + Arylex 5 g ai or ae/ha
  % Control: 100%
Velvetleaf (ABUTH); Trial Bridge 1 Trt 9, D10 1120 g ae/ha + Arylex 5 g ai or ae/ha
  % Control: 100%
Velvetleaf (ABUTH); Trial Bridge 1 Trt 11, D10 560 g ae/ha + Mesotrione 150 g ai or ae/ha
  % Control: 100%
Velvetleaf (ABUTH); Trial Bridge 1 Trt 12, D10 1120 g ae/ha + Mesotrione 150 g ai or ae/ha
  % Control: 100%
Velvetleaf (ABUTH); Trial Bridge 1 Trt 14, D10 560 g ae/ha + Glyphosate 1120 g ai or ae/ha
  % Control: 100%
Velvetleaf (ABUTH); Trial Bridge 1 Trt 15, D10 1120 g ae/ha + Glyphosate 1120 g ai or ae/ha
  % Control: 100%
Velvetleaf (ABUTH); [9]
  % Control: 100%
Velvetleaf (ABUTH); [10]
  % Control: 100%
Velvetleaf (ABUTH); [11]
  % Control: 100%
Velvetleaf (ABUTH); [12]
  % Control: 100%
Velvetleaf (ABUTH); [13]
  % Control: 100%
Velvetleaf (ABUTH); [14]
  % Control: 100%
Velvetleaf (ABUTH); [15]
  % Control: 100%
[8]; 168 h, 7 DAA
  pest or weed control at 280 g/ha: 71%
  pest or weed control at 560 g/ha: 75%
[8]; 336 h, 14 DAA
  pest or weed control at 280 g/ha: 84%
  pest or weed control at 560 g/ha: 92%
[8]; 504 h, 21 DAA
  pest or weed control at 280 g/ha: 87%
  pest or weed control at 560 g/ha: 94%
